In ChEMBL document CHEMBL1201862, “PubChem BioAssay data set” (2004):
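Five concentrations, 48 hours, 96-well plates. GI50 is the concentration that inhibits growth by half.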 Activity calls are given as the source filed them. Cut-off read from the data, not from the text of the source: active = GI50 up to about 1.1 µM and inactive = higher.

Columns and labels:
Test in all cases: NCI tumour cell line growth inhibition, 48 h
CCRF-CEM = tested on: CCRF-CEM
HCT-116 = tested on: HCT-116
SF-539 = tested on: SF-539
UACC-62 = tested on: UACC-62
A498 = tested on: A498
HOP-92 = tested on: HOP-92
MDA-MB-435 = tested on: MDA-MB-435
U-251 = tested on: U-251
HCC 2998 = tested on: HCC 2998
SN12C = tested on: SN12C
NCI-H460 = tested on: NCI-H460
KM12 = tested on: KM12
IGROV-1 = tested on: IGROV-1
Hs-578T = tested on: Hs-578T
TK-10 = tested on: TK-10
786-0 = tested on: 786-0
OVCAR-4 = tested on: OVCAR-4
SNB-75 = tested on: SNB-75
SNB-19 = tested on: SNB-19
OVCAR-8 = tested on: OVCAR-8
NCI-H522 = tested on: NCI-H522
EKVX = tested on: EKVX
MDA-MB-231 = tested on: MDA-MB-231
COLO 205 = tested on: COLO 205
MDA-N = tested on: MDA-N
NCI-H23 = tested on: NCI-H23
SK-OV-3 = tested on: SK-OV-3
HT-29 = tested on: HT-29
SF-295 = tested on: SF-295
NCI-H226 = tested on: NCI-H226
MOLT-4 = tested on: MOLT-4
Malme-3M = tested on: Malme-3M
UACC-257 = tested on: UACC-257
NCI/ADR-RES = tested on: NCI/ADR-RES
SK-MEL-2 = tested on: SK-MEL-2
OVCAR-3 = tested on: OVCAR-3
OVCAR-5 = tested on: OVCAR-5
HCT-15 = tested on: HCT-15
SW-620 = tested on: SW-620
RXF 393 = tested on: RXF 393
PC-3 = tested on: PC-3
K562 = tested on: K562
SR = tested on: SR
SK-MEL-5 = tested on: SK-MEL-5
MCF7 = tested on: MCF7
SF-268 = tested on: SF-268
T47D = tested on: T47D
M14 = tested on: M14
ACHN = tested on: ACHN
A549 = tested on: A549
HOP-62 = tested on: HOP-62
CAKI-1 = tested on: CAKI-1
DU-145 = tested on: DU-145
SK-MEL-28 = tested on: SK-MEL-28
LOX IMVI = tested on: LOX IMVI
HL-60 = tested on: HL-60
RPMI-8226 = tested on: RPMI-8226
UO-31 = tested on: UO-31

For `NC(=O)N/N=C1/c2ccccc2-n2nccc21`, which GI50 (CCRF-CEM) is on record?
The GI50 was 37.6 µM (inactive).

What about the GI50 (HCT-116) of the same compound?
The GI50 was 30.8 µM (inactive).

And the GI50 (SF-539)?
Its GI50 is 48.5 µM (inactive).

And the GI50 (UACC-62)?
Its GI50 is 48.6 µM (inactive).

What about the GI50 (A498) of the same compound?
The GI50 was 38.7 µM (inactive).

What about the GI50 (HOP-92) of the same compound?
Its GI50 is 64.7 µM (inactive).

What about the GI50 (MDA-MB-435) of the same compound?
The GI50 was 57.4 µM (inactive).

What about the GI50 (U-251) of the same compound?
Its GI50 is > 100 µM (inactive).

And the GI50 (HCC 2998)?
Its GI50 is 52.5 µM (inactive).

What about the GI50 (SN12C) of the same compound?
Its GI50 is 89.9 µM (inactive).

And the GI50 (NCI-H460)?
The GI50 was 45.1 µM (inactive).

And the GI50 (KM12)?
Its GI50 is > 100 µM (inactive).

And the GI50 (IGROV-1)?
The GI50 was 39.9 µM (inactive).

And the GI50 (Hs-578T)?
The GI50 was 85.5 µM (inactive).

What about the GI50 (TK-10) of the same compound?
The GI50 was > 100 µM (inactive).

What about the GI50 (786-0) of the same compound?
The GI50 was 76.6 µM (inactive).

What about the GI50 (OVCAR-4) of the same compound?
The GI50 was > 100 µM (inactive).

What about the GI50 (SNB-75) of the same compound?
Its GI50 is 28.8 µM (inactive).

And the GI50 (SNB-19)?
Its GI50 is > 100 µM (inactive).

And the GI50 (OVCAR-8)?
The GI50 was > 100 µM (inactive).

And the GI50 (NCI-H522)?
Its GI50 is > 100 µM (inactive).

What about the GI50 (EKVX) of the same compound?
Its GI50 is > 100 µM (inactive).

What about the GI50 (MDA-MB-231) of the same compound?
The GI50 was > 100 µM (inactive).

And the GI50 (COLO 205)?
Its GI50 is 67.1 µM (inactive).

And the GI50 (MDA-N)?
The GI50 was 43.1 µM (inactive).

And the GI50 (NCI-H23)?
The GI50 was > 100 µM (inactive).

And the GI50 (SK-OV-3)?
Its GI50 is > 100 µM (inactive).

And the GI50 (HT-29)?
Its GI50 is 76.4 µM (inactive).

What about the GI50 (SF-295) of the same compound?
The GI50 was > 100 µM (inactive).

And the GI50 (NCI-H226)?
The GI50 was 45.5 µM (inactive).

And the GI50 (MOLT-4)?
Its GI50 is 47.1 µM (inactive).

What about the GI50 (Malme-3M) of the same compound?
The GI50 was > 100 µM (inactive).

What about the GI50 (UACC-257) of the same compound?
Its GI50 is > 100 µM (inactive).

And the GI50 (NCI/ADR-RES)?
Its GI50 is > 100 µM (inactive).

What about the GI50 (SK-MEL-2) of the same compound?
The GI50 was > 100 µM (inactive).

And the GI50 (OVCAR-3)?
The GI50 was 40.7 µM (inactive).

And the GI50 (OVCAR-5)?
The GI50 was > 100 µM (inactive).

And the GI50 (HCT-15)?
The GI50 was 55.7 µM.

What about the GI50 (SW-620) of the same compound?
The GI50 was > 100 µM (inactive).

And the GI50 (RXF 393)?
The GI50 was 25.9 µM (inactive).

And the GI50 (PC-3)?
Its GI50 is > 100 µM (inactive).

What about the GI50 (K562) of the same compound?
Its GI50 is 75.7 µM (inactive).

And the GI50 (SR)?
The GI50 was 39 µM (inactive).

And the GI50 (SK-MEL-5)?
Its GI50 is 82.8 µM (inactive).

And the GI50 (MCF7)?
Its GI50 is 21.5 µM (inactive).

What about the GI50 (SF-268) of the same compound?
Its GI50 is 87.1 µM (inactive).

And the GI50 (T47D)?
The GI50 was 27.4 µM (inactive).

And the GI50 (M14)?
Its GI50 is 71.9 µM (inactive).

And the GI50 (ACHN)?
The GI50 was 43.5 µM (inactive).

And the GI50 (A549)?
The GI50 was 78.3 µM (inactive).

And the GI50 (HOP-62)?
The GI50 was 70.1 µM (inactive).

What about the GI50 (CAKI-1) of the same compound?
Its GI50 is 52.5 µM (inactive).

And the GI50 (DU-145)?
Its GI50 is > 100 µM (inactive).

What about the GI50 (SK-MEL-28) of the same compound?
Its GI50 is > 100 µM (inactive).

And the GI50 (LOX IMVI)?
The GI50 was 51.3 µM (inactive).

What about the GI50 (HL-60) of the same compound?
The GI50 was 8.59 µM (inactive).

With `OC(c1ccsc1)c1cc2ccccc2s1` (configuration not stated) as the compound, how does the GI50 (CCRF-CEM) read?
The GI50 was > 10 µM (inactive).

What about the GI50 (HCT-116) of the same compound?
Its GI50 is > 10 µM (inactive).

And the GI50 (SF-539)?
Its GI50 is > 10 µM (inactive).

And the GI50 (UACC-62)?
The GI50 was > 10 µM (inactive).

What about the GI50 (HOP-92) of the same compound?
The GI50 was > 10 µM (inactive).

What about the GI50 (MDA-MB-435) of the same compound?
Its GI50 is > 10 µM (inactive).

And the GI50 (U-251)?
The GI50 was > 10 µM (inactive).

And the GI50 (HCC 2998)?
The GI50 was > 10 µM (inactive).

And the GI50 (SN12C)?
The GI50 was > 10 µM (inactive).

What about the GI50 (NCI-H460) of the same compound?
Its GI50 is > 10 µM (inactive).

And the GI50 (KM12)?
Its GI50 is > 10 µM (inactive).

What about the GI50 (IGROV-1) of the same compound?
The GI50 was > 10 µM (inactive).

And the GI50 (Hs-578T)?
The GI50 was > 10 µM (inactive).

What about the GI50 (TK-10) of the same compound?
Its GI50 is > 10 µM (inactive).

What about the GI50 (786-0) of the same compound?
The GI50 was > 10 µM (inactive).

And the GI50 (OVCAR-4)?
Its GI50 is > 10 µM (inactive).

And the GI50 (SNB-75)?
The GI50 was > 10 µM (inactive).

And the GI50 (SNB-19)?
The GI50 was > 10 µM (inactive).

And the GI50 (OVCAR-8)?
Its GI50 is > 10 µM (inactive).

And the GI50 (NCI-H522)?
The GI50 was > 10 µM (inactive).

What about the GI50 (EKVX) of the same compound?
The GI50 was > 10 µM (inactive).

And the GI50 (MDA-MB-231)?
Its GI50 is > 10 µM (inactive).

What about the GI50 (COLO 205) of the same compound?
The GI50 was > 10 µM (inactive).

And the GI50 (MDA-N)?
Its GI50 is > 10 µM (inactive).

And the GI50 (NCI-H23)?
Its GI50 is > 10 µM (inactive).

And the GI50 (SK-OV-3)?
Its GI50 is > 10 µM (inactive).

And the GI50 (HT-29)?
Its GI50 is > 10 µM (inactive).

What about the GI50 (SF-295) of the same compound?
The GI50 was > 10 µM (inactive).

And the GI50 (NCI-H226)?
The GI50 was > 10 µM (inactive).

And the GI50 (MOLT-4)?
The GI50 was > 10 µM (inactive).

And the GI50 (UACC-257)?
The GI50 was > 10 µM (inactive).

And the GI50 (NCI/ADR-RES)?
Its GI50 is > 10 µM (inactive).

What about the GI50 (SK-MEL-2) of the same compound?
The GI50 was > 10 µM (inactive).

What about the GI50 (OVCAR-3) of the same compound?
The GI50 was > 10 µM (inactive).

What about the GI50 (OVCAR-5) of the same compound?
Its GI50 is > 10 µM (inactive).

And the GI50 (HCT-15)?
The GI50 was greater than 10 µM.

And the GI50 (SW-620)?
Its GI50 is > 10 µM (inactive).

What about the GI50 (RXF 393) of the same compound?
Its GI50 is > 10 µM (inactive).

What about the GI50 (PC-3) of the same compound?
The GI50 was > 10 µM (inactive).

What about the GI50 (K562) of the same compound?
The GI50 was > 10 µM (inactive).

And the GI50 (SR)?
The GI50 was > 10 µM (inactive).

What about the GI50 (SK-MEL-5) of the same compound?
Its GI50 is > 10 µM (inactive).

And the GI50 (MCF7)?
The GI50 was > 10 µM (inactive).

What about the GI50 (RPMI-8226) of the same compound?
The GI50 was > 10 µM (inactive).

And the GI50 (SF-268)?
Its GI50 is > 10 µM (inactive).

And the GI50 (T47D)?
The GI50 was > 10 µM (inactive).

What about the GI50 (M14) of the same compound?
Its GI50 is > 10 µM (inactive).

What about the GI50 (ACHN) of the same compound?
Its GI50 is > 10 µM (inactive).

And the GI50 (A549)?
The GI50 was > 10 µM (inactive).

And the GI50 (HOP-62)?
The GI50 was > 10 µM (inactive).

What about the GI50 (CAKI-1) of the same compound?
The GI50 was > 10 µM (inactive).

What about the GI50 (DU-145) of the same compound?
Its GI50 is > 10 µM (inactive).

And the GI50 (SK-MEL-28)?
The GI50 was > 10 µM (inactive).

And the GI50 (UO-31)?
The GI50 was > 10 µM (inactive).

And the GI50 (LOX IMVI)?
The GI50 was > 10 µM (inactive).

What about the GI50 (HL-60) of the same compound?
Its GI50 is > 10 µM (inactive).
